Assay [1] relates to H3K36me3 in A549 cells. In words: In-Cell Western (ICW) assay of SETD2 inhibitors (A549 assay). The conditions noted are these: A549 cells, read-out: SETD2 A549. Type of assay: cell-based, human. In a few lines: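 A549 cells seeded at 4,000/well onto compound and incubated 3 days at 37° C. Methanol-fixed cells stained overnight at 4° C with anti-H3K36me3 (1:1000), then IRDye 800CW secondary with DRAQ5 DNA counterstain. Plates read by Licor imaging at 700 and 800 channels.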

For assay [2], the target named is T1, SETD2(1434-1711) (Homo sapiens, UniProt Q9BYW2).
T1 construct: SETD2 (1434-1711) Assay; catalogue N/A
T1 sequence (Q9BYW2 1434-1711): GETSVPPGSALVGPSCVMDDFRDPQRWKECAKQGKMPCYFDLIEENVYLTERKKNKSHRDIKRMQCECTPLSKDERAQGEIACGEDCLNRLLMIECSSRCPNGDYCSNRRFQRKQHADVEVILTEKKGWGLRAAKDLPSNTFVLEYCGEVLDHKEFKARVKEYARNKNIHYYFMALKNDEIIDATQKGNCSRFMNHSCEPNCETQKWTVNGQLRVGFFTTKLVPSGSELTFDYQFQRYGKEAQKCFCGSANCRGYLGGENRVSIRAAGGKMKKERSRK
Description: SETD2 (1434-1711) assay. It is filed as biochemical. Particulars: read-out: SETD2 (1434-1711).

IC50 data for 21 compounds are collected here from patent publication US12116358B2, “Substituted indoles and methods of use thereof” (EPIZYME, INC., priority 2018, dated 2024).

Read-outs that look alike come from different tables or passages of the source.

Turning to `CC(=O)N1CCC2(CCN(c3cc(F)cc(NC(=O)c4cc5c(F)ccc(C)c5[nH]4)c3)CC2)C1` [compound 30], the IC50 in assay [1] came out at 70 nM; in assay [2], 8 nM.

Take `CC(=O)N(C(C)C)C1CCN(C2CCC[C@@H](NC(=O)c3cc4c(F)ccc(C)c4[nH]3)C2)C1` (stereo partly drawn) [compound 862]: the IC50 in assay [1] was > 2000 nM; in assay [2], 400 nM.

`Cc1ccc(F)c2cc(C(=O)N[C@@H]3CCC[C@@H](N4CCC(N(C)C(=O)CN(C)C)C4)C3)[nH]c12` (stereo partly drawn) [compound 909]: the IC50 was > 2000 nM in assay [1] (Homo sapiens) and 4700 nM in assay [2].

For the compound `Cc1ccc(F)c2cc(C(=O)NC3CCCC(N4CCN5C(=O)OCC5C4)C3)[nH]c12` (stereo not drawn) [compound 865], the IC50 amounted to 100 nM in assay [1] and 30 nM in assay [2].

Take `Cc1ccc(F)c2cc(C(=O)Nc3cccc(N4CCNCC4=O)c3)[nH]c12` [compound 321]: the figures for the IC50 in assay [1] (Homo sapiens) and in assay [2] were 1500 nM and 200 nM, respectively.

For the compound `Cc1ccc(F)c2cc(C(=O)NCC3(c4ccccc4N4CCN(C)CC4)CC3)[nH]c12` [Cpd. No. 392, 4-fluoro-7-methyl-N-((1-(2-(4-methylpiperazin-1-yl)phenyl)cyclopropyl)methyl)-1H-indole-2-carboxamide], the IC50 in assay [1] (Homo sapiens) came to 2000 nM; in assay [2], 60 nM.

As to `CC(=O)N1CCC(C2CCCC(NC(=O)c3cc4c(F)ccc(C)c4[nH]3)C2)CC1` (stereo not drawn) [compound 1124], the IC50 is 800 nM in assay [1] and 200 nM in assay [2].

For the compound `Cc1ccc(F)c2cc(C(=O)Nc3cccc(N4CC5CN(C)CC5C4)c3)[nH]c12` (stereo not drawn) [compound 165], the IC50 stood at 300 nM in assay [1] (Homo sapiens) and 10 nM in assay [2].

Take `CC(=O)N1CC2CN(C3CCCC(NC(=O)c4cc5c(F)ccc(C)c5[nH]4)C3)CC2C1` (stereo not drawn) [compound 1178]: the IC50 in assay [1] is > 2000 nM; in assay [2], 3900 nM.

Turning to `Cc1ccc(F)c2cc(C(=O)NC3CCCC(N4CCC(=O)N(C)CC4)C3)[nH]c12` (stereo not drawn) [compound 944], the IC50 in assay [1] turned out to be 100 nM; in assay [2] it was 30 nM.

On to `CCC(=O)N1CCN(c2cccc(NC(=O)c3cc4c(F)ccc(C)c4[nH]3)c2)CC1` [compound 36], for which the results for the IC50 in assay [1] and in assay [2] were 90 nM and 30 nM, respectively.

As to `CCN([C@@H]1CCN([C@H]2CCC[C@@H](NC(=O)c3cc4c(F)ccc(C)c4[nH]3)C2)C1)S(C)(=O)=O` [compound 1054], the figures for the IC50 in assay [1] (Homo sapiens) and in assay [2] were 90 nM and 10 nM, respectively.

On to `CC(=O)N1CCN(C2CCN(c3cc(F)cc(NC(=O)c4cc5c(F)ccc(C)c5[nH]4)c3)C2)CC1` (stereo not drawn) [compound 9], for which the values for the IC50 in assay [1] and in assay [2] were 40 nM and 8 nM, respectively.

Consider `Cc1ccc(F)c2cc(C(=O)N[C@H]3CCC[C@@H](C4=NNC(=O)CN4)C3)[nH]c12` [compound 1188], for which the IC50 turned out to be 1800 nM in assay [1] (Homo sapiens) and 200 nM in assay [2].

As to `Cc1ccc(F)c2cc(C(=O)Nc3ccc4cnc(CN5CCN(C)CC5)cc4c3)[nH]c12` [compound 409], the figures for the IC50 in assay [1] and in assay [2] were 3000 nM and 100 nM, respectively.

Turning to `Cc1ccc(F)c2cc(C(=O)Nc3cc(F)cc(N4CCC(N5CCN6C(=O)N(C)CC6C5)C4)c3)[nH]c12` (stereo not drawn) [compound 2], the IC50 in assay [1] stood at 30 nM; in assay [2], 5 nM.

Turning to `Cc1ccc(F)c2cc(C(=O)Nc3cccc(-c4cn[nH]c4N)c3)[nH]c12` [compound 397], the values for the IC50 in assay [1] (Homo sapiens) and in assay [2] were 2400 nM and 500 nM, respectively.

As for `COCC(=O)N1CCN([C@@H]2CCC[C@@H](NC(=O)c3cc4c(F)ccc(C)c4[nH]3)C2)CC1` [compound 847], the IC50 is > 2000 nM in assay [1] and 1000 nM in assay [2].

`Cc1ccc(F)c2cc(C(=O)Nc3cc(F)cc(N4CCC(N5CCOC(CO)C5)C4)c3)[nH]c12` (stereo not drawn) [compound 16]: the IC50 worked out at 50 nM in assay [1] and 10 nM in assay [2].

For the compound `Cc1ccc(F)c2cc(C(=O)Nc3cccc(N4CCNC(=O)CC4)c3)[nH]c12` [compound 200], the results for the IC50 in assay [1] and in assay [2] were 400 nM and 50 nM, respectively.

With `Cc1cccnc1C(CCC(=O)NC1CCOC1)NC(=O)c1cc2cccc(C)c2[nH]1` (stereo not drawn) [compound 571], the values for the IC50 in assay [1] and in assay [2] were > 25000 nM and 15900 nM, respectively.
